Results from patent publication US20120053189A1, “BTK INHIBITORS FOR THE TREATMENT OF IMMUNE MEDIATED CONDITIONS” (Pharmacyclics, Inc., priority 2010, published 2012).
“Also recorded” adds a separate entry of the source. Like-named read-outs stand apart in the source and are kept apart here.

Assays:
[1] = tested on: CD3+ T cells; test: T cell viability; type: cell-based, human; details: concentrations below 10 μM
Protocol: (§1) CD20+ B and CD3+ T cells were purified by negative selection (RosetteSep, >90% purity) from Buffy coat PBMC and viably frozen in 10% DMSO. Cells were thawed at 37° C. and maintained in growth media (RPMI media containing 10% FCS). B cells were stimulated with goat anti-human IgM F(ab′)2 (10 ug/ml, Invitrogen) and T cells were stimulated with anti-CD3/CD28 coated beads (Dynabeads) at a 1:1 bead/cell ratio. Cells were stained with PE-CD69 (BD) and analyzed by flow cytometry, gating on viable lymphocytes. […] For washout experiments, cells were rinsed 3× in 10 volumes of growth media, a protocol that was confirmed to completely wash away inhibition of BCR signaling by a reversible Btk inhibitor.

[2] = target: Abl (Homo sapiens, UniProt P00519); test: kinase selectivity, Abl; type: biochemical
Abl, sequence (P00519 whole entry, species assumed): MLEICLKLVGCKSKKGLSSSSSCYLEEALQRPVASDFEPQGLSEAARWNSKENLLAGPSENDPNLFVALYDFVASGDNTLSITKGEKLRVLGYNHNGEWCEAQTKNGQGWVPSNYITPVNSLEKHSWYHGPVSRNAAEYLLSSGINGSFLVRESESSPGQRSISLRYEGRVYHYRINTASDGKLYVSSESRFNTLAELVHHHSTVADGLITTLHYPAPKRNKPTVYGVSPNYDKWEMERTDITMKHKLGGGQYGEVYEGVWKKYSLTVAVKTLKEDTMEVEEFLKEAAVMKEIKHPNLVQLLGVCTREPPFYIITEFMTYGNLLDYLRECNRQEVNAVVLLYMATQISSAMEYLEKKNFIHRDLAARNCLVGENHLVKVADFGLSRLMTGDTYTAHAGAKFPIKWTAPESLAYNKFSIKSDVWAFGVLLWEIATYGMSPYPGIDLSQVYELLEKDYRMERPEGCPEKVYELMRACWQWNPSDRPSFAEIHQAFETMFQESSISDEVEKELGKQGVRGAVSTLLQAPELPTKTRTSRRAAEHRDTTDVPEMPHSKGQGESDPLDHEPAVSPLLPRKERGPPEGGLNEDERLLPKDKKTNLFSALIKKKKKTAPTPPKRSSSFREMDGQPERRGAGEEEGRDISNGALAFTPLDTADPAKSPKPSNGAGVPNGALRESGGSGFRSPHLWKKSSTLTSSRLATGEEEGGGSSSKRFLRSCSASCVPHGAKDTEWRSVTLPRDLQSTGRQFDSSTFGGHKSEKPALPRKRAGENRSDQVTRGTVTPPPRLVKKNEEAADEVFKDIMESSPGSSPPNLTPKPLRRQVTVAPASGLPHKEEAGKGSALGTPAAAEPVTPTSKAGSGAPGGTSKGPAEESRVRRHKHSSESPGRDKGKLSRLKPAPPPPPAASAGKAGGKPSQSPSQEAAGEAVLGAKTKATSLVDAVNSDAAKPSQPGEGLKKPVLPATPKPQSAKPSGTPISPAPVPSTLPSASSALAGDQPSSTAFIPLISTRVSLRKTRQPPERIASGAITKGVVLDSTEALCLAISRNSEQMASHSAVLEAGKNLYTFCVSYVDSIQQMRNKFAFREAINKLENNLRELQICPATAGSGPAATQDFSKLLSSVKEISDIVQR

[3] = tested on: CD20+ B cells; test: human B cell activation following BCR stimulation by anti-IgM (CD69); type: cell-based; details: read-out: EC50 of inhibition of human B cell activation
Protocol: as §1

[4] = target: VEGFR2 (Homo sapiens, UniProt P35968); test: kinase selectivity, VEGFR2; type: biochemical
VEGFR2, sequence (P35968 20-1356, species assumed): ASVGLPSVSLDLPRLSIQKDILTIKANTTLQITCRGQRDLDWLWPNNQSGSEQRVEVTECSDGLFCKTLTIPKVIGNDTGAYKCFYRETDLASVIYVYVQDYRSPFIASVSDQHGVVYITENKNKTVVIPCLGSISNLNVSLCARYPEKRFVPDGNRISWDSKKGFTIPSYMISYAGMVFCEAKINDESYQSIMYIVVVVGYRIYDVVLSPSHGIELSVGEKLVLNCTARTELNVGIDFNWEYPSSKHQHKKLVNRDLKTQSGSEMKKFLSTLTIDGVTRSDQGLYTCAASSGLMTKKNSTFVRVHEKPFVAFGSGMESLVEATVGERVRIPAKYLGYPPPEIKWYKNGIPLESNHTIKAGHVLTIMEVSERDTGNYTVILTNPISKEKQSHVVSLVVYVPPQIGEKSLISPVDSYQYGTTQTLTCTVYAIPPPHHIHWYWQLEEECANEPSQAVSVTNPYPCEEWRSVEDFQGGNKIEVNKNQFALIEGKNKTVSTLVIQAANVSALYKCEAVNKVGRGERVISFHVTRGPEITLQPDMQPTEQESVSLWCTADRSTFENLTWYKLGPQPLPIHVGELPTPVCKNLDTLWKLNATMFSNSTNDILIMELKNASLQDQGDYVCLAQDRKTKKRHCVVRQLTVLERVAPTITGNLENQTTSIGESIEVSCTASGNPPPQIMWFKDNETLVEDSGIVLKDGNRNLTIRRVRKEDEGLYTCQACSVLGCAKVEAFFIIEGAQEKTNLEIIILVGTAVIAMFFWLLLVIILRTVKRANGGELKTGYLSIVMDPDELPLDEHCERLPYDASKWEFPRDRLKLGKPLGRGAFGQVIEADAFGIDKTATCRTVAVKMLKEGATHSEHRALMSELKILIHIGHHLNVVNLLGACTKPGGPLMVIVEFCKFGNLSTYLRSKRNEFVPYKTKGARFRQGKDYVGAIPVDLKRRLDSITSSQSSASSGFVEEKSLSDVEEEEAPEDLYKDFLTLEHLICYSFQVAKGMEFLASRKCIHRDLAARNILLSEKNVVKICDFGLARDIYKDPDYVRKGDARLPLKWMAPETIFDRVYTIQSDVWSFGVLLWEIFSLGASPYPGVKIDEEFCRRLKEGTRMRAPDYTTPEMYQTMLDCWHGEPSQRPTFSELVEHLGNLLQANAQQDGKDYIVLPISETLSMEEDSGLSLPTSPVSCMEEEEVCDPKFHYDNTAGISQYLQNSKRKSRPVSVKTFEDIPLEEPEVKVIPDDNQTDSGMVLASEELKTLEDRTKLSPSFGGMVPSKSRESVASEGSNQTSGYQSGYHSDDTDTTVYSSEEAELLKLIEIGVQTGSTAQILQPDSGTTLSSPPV

[5] = tested on: human whole blood basophils; test: whole blood basophil assay, CD63 after anti-IgE stimulation; type: cell-based; details: for EC50: human whole blood basophils, read-out: EC50 of inhibition of anti-IgE mediated upregulation of CD63
Protocol: Fresh whole blood was collected on the day of the experiment from a healthy volunteer. Whole blood is stimulated with 10 ng/mL of rhIL-3 (Invitrogen) and […] of anti-IgE (Beckman Coulter) in Basophil Stimulation Buffer (20 mM HEPES pH 7.4, 125 mM NaCl, 5 mM KCl, 2.5 mM CaCl2, 1 mM MgCl2, 0.5% Glucose, 0.1% BSA) at 37° C. for 15 min. The reaction was terminated by the addition of EDTA. The stimulated whole blood was then stained with a fluorescent three-antibody cocktail (FITC-Anti-CD63/PerCP-Anti-HLA-DR/PE-Anti-CD123) (BD Biosciences) at room temperature in the dark for 15 min. Following staining, blood was treated with 1×FACS Lysing solution (BD Biosciences) for 15 minutes to lyse the RBC. The lysed RBC supernatant was removed following centrifugation for […]. The cell pellet was resuspended and fixed in 0.5% paraformaldehyde in PBS. The percentage of basophil degranulation was determined by the % of CD63 cells that were CD123 positive and HLA-DR negative.

[6] = interspecies scaling of clearance and estimation of efficacious human daily dosage; details: FIG. 7
Protocol: There is an excellent scaling of clearance (dose/AUC) within mice, rats and dogs, and therefore exposure to dose projection in humans is likely precise. Based on interspecies scaling of clearance, the human BW normalized CL/F was determined to be about 2.53 (FIG. 7).

[7] = tested on: human monocytes; test: human monocyte cytokine release assay (IgG stimulation); type: cell-based; details: for release of IL-1β from human monocytes following FcγR stimulation with IgG: FIG. 2
Protocol: Human monocytes were isolated from Ficoll-gradient purified PBMC from healthy human volunteers using negative selection with EasySep (StemCells) magnetic beads. CD14+monocytes were then stimulated with IFN-gamma for 6 days, and then 2×10^6 cells were plated onto 10 μg/ml of human IgG (R&D Biosystems) coated onto Immulon 4 ELISA plates. […] Supernatants were collected from the plates and cytokines levels were determined with ELISA kits.

[8] = tested on: RAW264.7 cells; test: IgG mediated phagocytosis of Zymosan particles; type: cell-based, murine; details: IgG opsonized Zymosan particles, RAW cells
Protocol: Prelabeled Zymosan particles were first opsonized with mouse IgG at 37 C for 30 min, and then centrifuged down and washed several times with PBS. The Zymosan particles are the resuspended in PBS.

[9] = in vitro; details: human, liver microsomes
[10] = hepatic extraction ratio in rats; type: in vivo; details: oral, 1-(AUC systemic÷AUC portal)
Protocol: The analyses were performed using nominal sample times and a noncompartmental method with uniform weighting. Pharmacokinetic parameter estimates included terminal half-life and area under the concentration-time curve (AUC). Extraction ratios were calculated as 1-(AUC systemic÷AUC portal).

[11] = target: JAK2 (Homo sapiens, UniProt O60674); test: kinase selectivity, JAK2; type: biochemical
[12] = tested on: murine collagen-induced arthritis (CIA) model; test: murine collagen-induced arthritis (CIA) model; type: in vivo, mice; details: for inflammatory synovitis, pannus formation, synovial fluid cytokines, cartilage damage and bone erosion: preventive and established murine CIA models
Protocol: Male mice 7 weeks of age were purchased from Harlan Laboratories, and acclimated for a minimum of 3 days. Mice were immunized on Day 0 with 150 μg of bovine collagen II (Chondrex Inc) in CFA (Sigma), and boosted with 100 μg of bovine collagen II in IFA on day 21. Fore and hind paws of mice were scored daily with a clinical scoring system using the following criteria:
0=normal 1=1 hind or fore paw joint affected • with minimal diffuse swelling and erythema (redness of the skin due to congestion of the capillaries)
2=2 hind or fore paw joints affected • with minimal diffuse swelling and erythema (redness of the skin due to congestion of the capillaries)
3=3 hind or fore paw joints affected • with minimal diffuse swelling and erythema (redness of the skin due to congestion of the capillaries)
4=minimum of 4 joints affected • marked diffuse swelling and erythema (redness of the skin due to congestion of the capillaries)
5=minimum entire paw, • unable to flex (Severe diffuse swelling and erythema redness of the skin due to congestion of the capillaries
Mice were enrolled randomly into treatment groups when a minimum mean paw score of 1.0 was established. The treatments started on the day of enrollment and continued for 12 days. Clinical scores were monitored daily for each animal in the treatment groups.

[13] = target: Btk (Homo sapiens, UniProt Q06187); test: Btk biochemical assays
Btk, sequence (Q06187 whole entry): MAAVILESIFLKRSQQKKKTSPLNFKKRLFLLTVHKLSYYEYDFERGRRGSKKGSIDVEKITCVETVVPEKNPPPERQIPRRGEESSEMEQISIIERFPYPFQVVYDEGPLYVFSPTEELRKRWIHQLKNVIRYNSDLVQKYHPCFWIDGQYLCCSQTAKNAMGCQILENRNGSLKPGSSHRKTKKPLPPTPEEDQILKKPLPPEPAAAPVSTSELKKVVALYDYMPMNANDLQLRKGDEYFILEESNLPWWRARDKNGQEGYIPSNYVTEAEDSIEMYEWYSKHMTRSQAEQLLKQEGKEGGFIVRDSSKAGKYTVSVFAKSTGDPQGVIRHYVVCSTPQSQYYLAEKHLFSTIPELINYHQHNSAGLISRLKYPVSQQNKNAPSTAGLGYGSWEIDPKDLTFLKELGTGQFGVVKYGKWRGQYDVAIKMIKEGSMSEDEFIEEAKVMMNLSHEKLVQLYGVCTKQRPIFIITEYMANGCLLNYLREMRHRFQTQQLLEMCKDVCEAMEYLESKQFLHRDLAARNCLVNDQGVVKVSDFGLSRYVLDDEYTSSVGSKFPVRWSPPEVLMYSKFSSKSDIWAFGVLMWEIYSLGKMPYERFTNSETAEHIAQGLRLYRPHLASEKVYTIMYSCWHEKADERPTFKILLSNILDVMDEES

[14] = target: EGFR (Homo sapiens, UniProt P00533); test: kinase selectivity, EGFR; type: biochemical
EGFR, sequence (P00533 25-1210, species assumed): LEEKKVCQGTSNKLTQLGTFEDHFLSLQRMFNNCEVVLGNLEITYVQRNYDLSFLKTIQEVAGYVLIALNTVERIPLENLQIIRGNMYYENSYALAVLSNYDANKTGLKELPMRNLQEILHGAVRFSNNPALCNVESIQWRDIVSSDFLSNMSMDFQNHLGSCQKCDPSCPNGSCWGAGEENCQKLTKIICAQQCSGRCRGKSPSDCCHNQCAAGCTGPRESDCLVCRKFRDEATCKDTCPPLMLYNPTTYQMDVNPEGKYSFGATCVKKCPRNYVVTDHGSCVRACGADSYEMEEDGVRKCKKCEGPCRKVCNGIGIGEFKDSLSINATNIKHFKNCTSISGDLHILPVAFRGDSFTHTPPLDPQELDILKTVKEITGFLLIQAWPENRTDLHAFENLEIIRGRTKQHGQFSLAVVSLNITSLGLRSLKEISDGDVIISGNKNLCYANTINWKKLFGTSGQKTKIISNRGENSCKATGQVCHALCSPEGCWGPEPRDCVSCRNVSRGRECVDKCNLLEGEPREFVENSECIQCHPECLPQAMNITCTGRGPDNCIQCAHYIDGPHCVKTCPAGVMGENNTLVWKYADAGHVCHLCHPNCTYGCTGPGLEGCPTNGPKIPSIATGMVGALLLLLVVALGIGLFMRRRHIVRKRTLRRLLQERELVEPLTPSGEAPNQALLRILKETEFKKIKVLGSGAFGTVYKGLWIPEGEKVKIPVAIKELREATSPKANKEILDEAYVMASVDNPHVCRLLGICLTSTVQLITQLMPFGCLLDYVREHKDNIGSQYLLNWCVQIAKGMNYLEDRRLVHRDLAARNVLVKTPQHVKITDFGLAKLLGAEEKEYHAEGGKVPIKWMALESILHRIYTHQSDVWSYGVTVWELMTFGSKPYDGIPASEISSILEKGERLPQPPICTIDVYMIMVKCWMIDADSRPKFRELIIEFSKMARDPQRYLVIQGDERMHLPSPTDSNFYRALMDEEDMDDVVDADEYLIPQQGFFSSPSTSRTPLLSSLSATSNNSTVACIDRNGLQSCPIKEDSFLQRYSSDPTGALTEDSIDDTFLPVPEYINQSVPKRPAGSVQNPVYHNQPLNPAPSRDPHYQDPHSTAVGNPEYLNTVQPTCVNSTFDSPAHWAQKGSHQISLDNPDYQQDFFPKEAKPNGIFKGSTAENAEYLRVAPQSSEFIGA

[15] = target: T1, JAK3 (Homo sapiens, UniProt P52333); test: kinase selectivity, JAK3; type: biochemical
T1 sequence (P52333 1-1124): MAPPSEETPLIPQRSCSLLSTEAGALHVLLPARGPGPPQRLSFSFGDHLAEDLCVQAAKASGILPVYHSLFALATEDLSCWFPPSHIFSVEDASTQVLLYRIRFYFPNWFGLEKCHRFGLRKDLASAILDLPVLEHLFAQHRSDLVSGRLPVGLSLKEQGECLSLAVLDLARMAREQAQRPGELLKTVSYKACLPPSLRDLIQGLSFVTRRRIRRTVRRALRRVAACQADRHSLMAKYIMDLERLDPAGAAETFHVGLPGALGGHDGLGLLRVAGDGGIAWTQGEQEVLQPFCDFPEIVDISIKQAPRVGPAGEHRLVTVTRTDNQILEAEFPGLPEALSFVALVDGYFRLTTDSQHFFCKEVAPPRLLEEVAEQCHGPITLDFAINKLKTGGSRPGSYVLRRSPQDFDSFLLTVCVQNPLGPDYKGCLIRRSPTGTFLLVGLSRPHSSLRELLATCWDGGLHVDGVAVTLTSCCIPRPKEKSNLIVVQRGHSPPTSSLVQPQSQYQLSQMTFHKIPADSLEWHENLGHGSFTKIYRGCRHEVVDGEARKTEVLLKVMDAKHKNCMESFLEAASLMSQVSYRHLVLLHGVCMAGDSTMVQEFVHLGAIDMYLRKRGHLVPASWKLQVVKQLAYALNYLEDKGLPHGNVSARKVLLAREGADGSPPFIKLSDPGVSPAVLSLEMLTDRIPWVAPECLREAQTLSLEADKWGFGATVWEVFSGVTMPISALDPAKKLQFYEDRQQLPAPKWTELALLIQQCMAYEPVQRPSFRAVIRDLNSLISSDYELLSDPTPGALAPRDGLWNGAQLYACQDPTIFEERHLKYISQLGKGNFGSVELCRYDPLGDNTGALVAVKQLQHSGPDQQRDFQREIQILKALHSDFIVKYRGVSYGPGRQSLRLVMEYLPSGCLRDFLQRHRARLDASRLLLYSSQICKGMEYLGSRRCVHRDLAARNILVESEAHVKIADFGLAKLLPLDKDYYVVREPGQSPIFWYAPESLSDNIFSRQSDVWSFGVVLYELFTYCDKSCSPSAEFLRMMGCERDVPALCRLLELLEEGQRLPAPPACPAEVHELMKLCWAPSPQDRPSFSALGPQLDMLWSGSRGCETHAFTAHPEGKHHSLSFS

[16] = in vivo; details: CDIGS, rat
[17] = tested on: CD20+ B cells; test: B cell viability; type: cell-based, human; details: concentrations below 10 μM
Protocol: as §1

[18] = target: JAK1 (Homo sapiens, UniProt P23458); test: kinase selectivity, JAK1; type: biochemical
[19] = tested on: murine collagen-antibody-induced arthritis model (CAIA model); test: murine collagen-antibody-induced arthritis model (CAIA model); type: in vivo, DBA/1 mice; details: for dose that completely suppressed the development of arthritis: mouse, in vivo
Protocol: DBA/1 mice were injected intravenously with 2 mg of Arthrogen-CIA 5 mouse anti-bovine collagen (Chondrex) on day 0. Three days later, these mice were injected IP with 50 μg of LPS.
Mice were monitored for clinical symptoms daily with the criteria below.
0=normal 1=1 hind or fore paw joint affected 2=2 hind or fore paw joints affected 3=3 hind or fore paw joints affected 4=moderate (erythema and moderate swelling, or =4 digit joints affected) 5=severe (diffuse erythema and severe swelling entire paw, unable to flex digits)

CN(C)C/C=C/C(=O)N1CC[C@@H](n2nc(-c3ccc(Oc4ccccc4)cc3)c3c(N)ncnc32)C1 [Compound 1]
T cell viability [1]: did not decrease | inhibition of Abl [2]: no significant inhibition | EC50 [3]: 2 nM | inhibition of VEGFR2 [4]: no significant inhibition | basophil activation following anti-IgE stimulation ([5]; FIG. 1): basophil activation inhibition | EC50 ([5]; listed as (E)-1-4R)-3-(4-amino-3-(4-phenoxyphenyl)-1H-pyrazolo[3,4-d]pyrimidin-1-yl)pyrrol): ~92 nM | allometric scaling of CL/F vs. Body Weight in multiple species [6]: linear | concentration inhibiting cytokine release from human monocytes [7]: 20 to 100 nM | release of IL-1β from human monocytes following FcγR stimulation with IgG ([7]; listed as (E)-1-(R)-3-(4-amino-3-(4-phenoxyphenyl)-1H-pyrazolo[3,4-d]pyrimidin-1-yl)pyrro): suppressed the release of IL-1b; also recorded: monocyte release inhibition of IL-1β | concentration up to which IgG-mediated phagocytosis was not inhibited [8]: > 10,000 nM | half-life [9]: 19.2 min | hepatic extraction ratio [10]: 0.289 | inhibition of JAK2 [11]: no significant inhibition | time after drug administration at which reversal of clinical arthritis was observed ([12]; 1.6 and 3.2 mg/kg/day): 1 days | clinical arthritic symptoms ([12]; 1.6 and 3.2 mg/kg/day, treatment for 12 days): reversed clinical arthritic symptoms | arthritic clinical scores ([12]; FIG. 4): reversal of arthritic clinical scores | EC50 of inhibition of overt manifestations of arthritis (clinical arthritic symptoms) ([12]; mice, CIA): 0.61 mg/kg/day | inflammatory synovitis, pannus formation, synovial fluid cytokines, cartilage damage and bone erosion [12]: dose-dependently inhibited | IC50 [13]: 1 to 2 nM | selectivity as inhibitor of Btk ([13]; compared with Compound 2 or dasatinib): more selective inhibitor of Btk | inhibition of EGFR [14]: no significant inhibition | inhibition of JAK3 [15]: no significant inhibition | bioavailability ([16]; in vivo): 24.7% | B cell viability [17]: did not decrease | inhibition of JAK1 [18]: no significant inhibition | clinical arthritis ([19]; 0.8, 1.6 and 3.2 mg/kg/day, day 0 to day 14): completely prevented and suppressed clinical arthritis | dose that completely suppressed the development of arthritis [19]: 0.8 mg/kg/day

CN(Cc1cnc2nc(N)nc(N)c2n1)c1ccc(C(=O)N[C@@H](CCC(=O)O)C(=O)O)cc1 [methotrexate, reference compound]
clinical arthritis, disease course ([12]; 1.5 mg/kg/day): stabilized disease without further progression of arthritic swelling

C[C@@H]1C[C@H]2[C@@H]3CCC4=CC(=O)C=C[C@]4(C)[C@@]3(F)[C@@H](O)C[C@]2(C)[C@@]1(O)C(=O)CO [dexamethasone, reference compound]
average clinical scores ([19]; 0.2 mg/kg, day 14): 1

C=CC(=O)N1CCC[C@@H](n2nc(-c3ccc(Oc4ccccc4)cc3)c3c(N)ncnc32)C1 [Compound 2, reference compound]
T cell viability [1]: did not decrease | EC50 [3]: 2 nM | EC50 [5]: 20 to 100 nM | release of IL-1β from human monocytes following FcγR stimulation with IgG ([7]; listed as (R)-1-(3-(4-amino-3-(4-phenoxyphenyl)-1H-pyrazolo[3,4-d]pyrimidin-1-yl)piperidin)): suppressed the release of IL-1b; also recorded: monocyte release inhibition of IL-1β | inflammatory synovitis, pannus formation, synovial fluid cytokines, cartilage damage and bone erosion [12]: dose-dependently inhibited | bioavailability ([16]; plasma, oral): 22.8% | B cell viability [17]: did not decrease | dose that completely suppressed the development of arthritis [19]: 6.25 mg/kg/day
